Tests used:
[1] = tested on: Rattus norvegicus; experiment: Compound was tested for its effect on heart rate in anaesthetized rats after i.v. administration at a dose of 4.12 umol/kg.; format: functional
[2] = tested on: Rattus norvegicus; experiment: Compound was tested for its effect on diastolic blood pressure in anaesthetized rats after i.v. administration at a dose of 4.12 umol/kg.; format: functional, Artery
[3] = tested on: Rattus norvegicus; experiment: Compound was tested for its effect on respiratory frequency in anaesthetized rats after i.v. administration at a dose of 4.12 umol/kg.; format: functional
[4] = species on record: Rattus norvegicus; experiment: Compound was tested for cardiac ionotropism and expressed as dP/dtmax.; format: functional; set-up: concentration or dose not given beside the values
[5] = tested on: Rattus norvegicus; experiment: Compound was tested for its effect on systolic blood pressure in anaesthetized rats after i.v. administration at a dose of 4.12 umol/kg.; format: functional, Artery
[6] = tested on: Rattus norvegicus; experiment: Compound was tested for its effect on heart rate in anaesthetized rats after i.v. administration at a dose of 4.12 umol/kg; format: functional

| Compound | HR [1] [delta beats min-1] | Activity [2] [delta mmHg] | RF [3] [delta beats min-1] | dP/dt max [4] [mmHg s-1] | Activity [5] [delta mmHg] | HR [6] [delta beats min-1] |
| --- | --- | --- | --- | --- | --- | --- |
| COc1ccc(C(=O)NCCCC/N=C(\N)NCC=C(C)C)cc1.CS(=O)(=O)O | -16 | -35 | 17 | 3249 | -26 | – |
| COc1ccc(CCC(=O)NCCCC/N=C(\N)NCC=C(C)C)cc1OC.CS(=O)(=O)O | -12 | -14 | 6 | 2252 | -15 | – |
| COc1ccc(/C=C/C(=O)NCCCCCC/N=C(\N)NCC=C(C)C)cc1OC.CS(=O)(=O)O | – | -8 | 4 | 648 | -9 | 4 |
| CC(C)=CC/N=C(/N)NCCCCNC(=O)/C=C/c1ccccc1.CS(=O)(=O)O | 19 | -59 | 12 | 6070 | -47 | – |
| COc1ccc(C#CC(=O)NCCCC/N=C(\N)NCC=C(C)C)cc1OC.CS(=O)(=O)O | 14 | -24 | 14 | 3424 | -14 | – |
| COc1ccc([C@H]2C[C@@H]2C(=O)NCCCC/N=C(\N)NCC=C(C)C)cc1OC.CS(=O)(=O)O | -19 | -26 | 19 | 2781 | -30 | – |
| COc1ccc(/C=C/C(=O)NCCCCC/N=C(\N)NCC=C(C)C)cc1OC.CS(=O)(=O)O | – | -40 | -10 | 5028 | -34 | 8 |
| COc1ccc(/C=C/C(=O)NCCCC/N=C(\N)NCC=C(C)C)cc1OC.CS(=O)(=O)O | 22 | -18 | 23 | 2996 | -21 | – |
| COc1ccc(CC(=O)NCCCC/N=C(\N)NCC=C(C)C)cc1OC.CS(=O)(=O)O | -24 | -31 | 16 | 3088 | -22 | – |

— ChEMBL document CHEMBL1128996, “Synthesis and preliminary pharmacological evaluation of analogues of caracasanamide, a hypotensive natural product” (1996)
